In publication PMC7472185 (Viruses, 2020):
Like-named read-outs stand apart in the source and are kept apart here.

What was measured:
HBV RT = HBV RT (Hepatitis B virus genotype C subtype adr, UniProt P12933); test: T/P and substrate binding assay (cell-free), poly(rA)/oligo(dT) with DIG-dUTP; settings: for Inhibitory effect on T/P and substrate binding activity of HBV RT: poly(rA)/oligo(dT); for inhibition at 10 µM / inhibition at 100 µM: read-out: % Inhibition to HBV RT of cell-free assay
[1] = test system: NTCP-expressing HepG2 (NTCP/G2) cells; test: Cytotoxicity, CellTiter-Glo, NTCP/G2 cells; format: cell-based; settings: day 9
HBV [2] = test: Intracellular core-associated HBV DNA by qPCR, HB611 cells; format: cell-based, Hepatitis B virus
HBV [3] = test: microbe, parasite or virus in culture; format: cell-based, Hepatitis B virus; settings: HB611 cells, read-out: IC50 for extracellular HBV production
HB611 cells = test: Cytotoxicity, CellTiter-Glo, HB611 cells; format: cell-based, human
HBsAg = HBsAg ELISA of supernatant, HB611 cells; format: cell-based, Hepatitis B virus; settings: suramin, KB-R7943, compound 3 up to 50, 20, and 25 µM, respectively
HBeAg [4] = test: HBeAg ELISA of supernatant, HB611 cells; format: cell-based, Hepatitis B virus; settings: suramin, KB-R7943, compound 3 up to 50, 20, and 25 µM, respectively
HBV [5] = test: Intracellular core-associated HBV DNA by qPCR, NTCP/G2 infection system; format: cell-based, Hepatitis B virus
HBeAg [6] = test: HBeAg ELISA of supernatant, HBV infection system NTCP/G2; format: cell-based, Hepatitis B virus; settings: NTCP/G2, day 9
[7] = Cytotoxicity, CellTiter-Glo, NTCP/G2 cells; format: cell-based; settings: human, NTCP-expressing HepG2 (NTCP/G2) cells, day 9
HBV cccDNA = test: cccDNA by qPCR (Hirt DNA), NTCP/G2 infection system; format: cell-based, Hepatitis B virus; settings: NTCP/G2 cells
[8] = Cytotoxicity, CellTiter-Glo, HB611 cells; format: cell-based, human; settings: human; HB611 cells, day 9

Sequence of HBV RT (P12933 347-690): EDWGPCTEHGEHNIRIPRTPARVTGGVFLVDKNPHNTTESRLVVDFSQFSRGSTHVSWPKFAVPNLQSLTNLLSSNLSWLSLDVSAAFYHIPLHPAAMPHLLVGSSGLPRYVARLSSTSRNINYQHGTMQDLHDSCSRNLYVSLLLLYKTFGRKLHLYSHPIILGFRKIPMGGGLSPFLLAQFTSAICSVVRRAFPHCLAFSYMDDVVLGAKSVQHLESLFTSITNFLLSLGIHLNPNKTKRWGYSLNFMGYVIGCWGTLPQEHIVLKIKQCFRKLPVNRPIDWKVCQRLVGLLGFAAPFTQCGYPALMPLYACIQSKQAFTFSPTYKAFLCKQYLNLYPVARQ

With `Cc1cc2c(C(C)C)c(O)c(O)c(C=O)c2c(O)c1-c1c(C)cc2c(C(C)C)c(O)c(O)c(C=O)c2c1O` [Gossypol] the “Inhibitory effect on T/P and substrate binding activity of HBV RT” value (HBV RT; 10 µM compound) was “showed the higher inhibitory effects”, the inhibition at 10 µM (HBV RT; 10 µM compound) was 92% and the inhibition at 100 µM (HBV RT; 100 µM compound) was 97%.

With `N=C(N)SCCc1ccc(OCc2ccc([N+](=O)[O-])cc2)cc1` [KB-R7943] the CC50 [1] was 37.4 µM, the “Core-associated DNA” value (HBV [2]; HB611 cells) was “modest decrease” and the IC50 (HBV [3]) was 3.7 µM. The CC50 (HB611 cells) was 41.9 µM, the “HBsAg secretion” value (HBsAg) was “no changes” and the “HBeAg secretion” value (HBeAg [4]) was “no changes”. The “putative IC50, core-associated HBV DNA” value (HBV [5]; NTCP/G2, day 9) was 7.37 µM, the “HBeAg expression in the culture supernatant” value (HBeAg [6]) was “did not change” and the “Inhibitory effect on T/P and substrate binding activity of HBV RT” value (HBV RT; 10 µM compound) was “showed the higher inhibitory effects”.

For `O=C(Nc1cccc(C(=O)Nc2ccc(S(=O)(=O)O)c3cc(S(=O)(=O)O)cc(S(=O)(=O)O)c23)c1)Nc1cccc(C(=O)Nc2ccc(S(=O)(=O)O)c3cc(S(=O)(=O)O)cc(S(=O)(=O)O)c23)c1` [NF023], the “% Inhibition to HBV RT of cell-free assay” value (HBV RT; 10 µM compound) was 26% and the “% Inhibition to HBV RT of cell-free assay” value (HBV RT; 100 µM compound) was 96%.

`Nc1c(S(=O)(=O)O)cc(Nc2ccc(Nc3nc(Cl)nc(Nc4cccc(S(=O)(=O)O)c4)n3)c(S(=O)(=O)O)c2)c2c1C(=O)c1ccccc1C2=O` [Reactive blue 2] gave an inhibition at 10 µM (HBV RT; 10 µM compound) of 53% and an inhibition at 100 µM (HBV RT; 100 µM compound) of 100%.

Work on `CC(=O)c1c(O)c(C)c(O)c(Cc2c(O)c3c(c(C(=O)/C=C/c4ccccc4)c2O)OC(C)(C)C=C3)c1O` [Rottlerin] yielded an inhibition at 10 µM (HBV RT) of 35% and an inhibition at 100 µM (HBV RT) of 98%.

Work on `Cc1ccc(C(=O)Nc2ccc(S(=O)(=O)O)c3cc(S(=O)(=O)O)cc(S(=O)(=O)O)c23)cc1NC(=O)c1cccc(NC(=O)Nc2cccc(C(=O)Nc3cc(C(=O)Nc4ccc(S(=O)(=O)O)c5cc(S(=O)(=O)O)cc(S(=O)(=O)O)c45)ccc3C)c2)c1` [Suramin] yielded a CC50 at 9 days [7] of over 200 µM, an IC50 (HBV [2]; Hepatitis B virus, HB611, read-out: IC50 for core-associated DNA) of 26.4 µM and an IC50 (HBV [3]; Hepatitis B virus) of 16.8 µM. The “cccDNA levels” value (HBV cccDNA) was “reduced”, the CC50 at 9 days [8] was 168 µM and the “HBsAg secretion” value (HBsAg) was “no changes”. For the same compound, the “HBeAg secretion” value (HBeAg [4]) was “no changes”, the IC50 (HBV [5]; Hepatitis B virus, 216 h, read-out: putative IC50, core-associated HBV DNA) was 0.27 µM and the “HBeAg expression in the culture supernatant” value (HBeAg [6]) was “reduced”. The “Inhibitory effect on T/P and substrate binding activity of HBV RT” value (HBV RT; 10 µM compound) was “showed the higher inhibitory effects”, the inhibition at 10 µM (HBV RT; 10 µM compound) was 69% and the inhibition at 100 µM (HBV RT; 100 µM compound) was 97%.

With `C=CC1=C(C)c2cc3[nH]c(cc4nc(cc5[nH]c(cc1n2)c(C)c5CCC(=O)O)C(CCC(=O)O)=C4C)c(C)c3C=C` [protoporphyrin IX disodium] the “Inhibitory effect on T/P and substrate binding activity of HBV RT” value (HBV RT; 10 µM compound) was “showed the higher inhibitory effects”.
